Where only a bound is given, the exact number is not on record here.

The test system of one series is MDA-MB-231. As to the kind of experiment: MTT assay, MDA-MB-231 cells. The note with it: Homo sapiens, MDA-MB-231, 72 h of incubation, read-out: IC50 values ± SD, MDA-MB-231. It counts as cell-based, human. From the text: (§1) The impact of acridine spiro derivatives 6–10 (Figure 13) on the metabolic activity of various tumor cell lines HCT-116 (human colorectal carcinoma), Jurkat (human leukemia cells), HeLa (human cervical adenocarcinoma), MDA-MB-231, and MCF-7 (human breast adenocarcinoma), and normal cell lines COS-7 (monkey kidney cells) and BJ-5ta (skin fibroblasts) was investigated using the MTT assay. This assay measures the conversion of yellow 3-(4,5-dimethylthiazol-2-yl)-2,5-diphenyltetrazolium bromide (MTT) to insoluble purple formazan by metabolically active cells. The antiproliferative activities of the tested compounds were determined based on the results from the MTT assay, and the inhibitory concentration values (IC50) are presented in Table 5.
(§2) The human cancer cell lines employed in this study were sourced from reputable institutions, including the American Type Culture Collection (ATCC; Manassas, VA, USA) and the European Collection of Authenticated Cell Cultures (ECACC, Salisbury, UK). Specifically, HeLa (93021013, human cervical adenocarcinoma), HCT116 (CCL-247TM, human colorectal carcinoma), and Jurkat (88042803, human leukemic T-cell lymphoma) were cultured in RPMI 1640 medium (Biosera, Kansas City, MO, USA). In contrast, MCF-7 (HTB-22TM, human breast adenocarcinoma, ER+), MDA-MB-231 (HTB-26TM, human breast adenocarcinoma, ER−), and COS-7 (CRL-1651TM, kidney fibroblasts) were nurtured in high-glucose Dulbecco’s Modified Eagle Medium (DMEM) supplemented with sodium pyruvate (Biosera). Furthermore, BJ-5ta (CRL-4001TM, human dermal fibroblasts) was cultured in a composite medium of high-glucose DMEM and M199 (4:1) (Biosera), supplemented with Hygromycin B (0.01 mg/mL; Merck, Darmstadt, Germany). All culture media were enriched with a 10% fetal bovine serum (FBS; Gibco, Thermo Scientific, Rockford, IL, USA) and an antibiotic/antimycotic solution (Merck) to ensure optimal growth conditions. The cells were meticulously maintained within a humidified environment containing 5% CO2 at 37 °C. Regular screenings for mycoplasma contamination were conducted using Hoechst 33342 staining (Merck), confirming the integrity of the cell lines.
(§3) To assess the antiproliferative impact of the synthesized compounds 6–10, their half-maximal inhibitory concentration (IC50) and the MTT colorimetric assay were employed. MDA-MB-231 and MCF-7 cells were seeded into 96-well microplates (SARSTEDT, Nümbrecht, Germany) at a density of 5 × 10^3 cells per well. After 24 h of cell seeding, various concentrations (100, 50, and 10 µmol/L) of acridine derivatives 6–10 were introduced, alongside cisplatin (utilized as a reference) at concentrations of 5, 10, 20, 50, and 100 µmol/L. Subsequent to 24, 48, and 72 h of treatment, the cells in each well underwent incubation with MTT (5 mg/mL, Sigma-Aldrich Chemie, Steinheim, Germany) for 4 h at 37 °C in the dark. During this period, mitochondrial oxidoreductases metabolized MTT, forming insoluble formazan. Following this, 100 µL of SDS (10% […]) was added to dissolve the formazan crystals, and the cells were incubated for an additional 12 h. Absorbance at 540 nm was measured using the automated Cytation™ 3 Cell Imaging Multi-Mode Reader (Biotek, Winooski, VT, USA). Each test was performed in triplicate, and three independent experiments were conducted to ensure precision and reliability.

The test system of a further series is COS-7. Kind of series: MTT assay, COS-7 normal cells. It counts as cell-based, monkey. The note with it: Primates, COS-7, 72 h of incubation, normal cell line, read-out: IC50 values ± SD, COS-7.
Text: as §1, §2, §3
(Tetrazolium assays rely on reduction of a dye to a coloured formazan, in cell work by metabolically active cells.)

In another series the test system is Jurkat. Kind of series: MTT assay, Jurkat cells. In kind it is cell-based, human. The note with it: for IC50: Homo sapiens, Jurkat, MTT, 72 h of incubation, read-out: IC50 values ± SD, Jurkat.
Text: as §1, §2, §3

The test system of another series is HeLa. Kind of series: MTT assay, HeLa cells. In kind it is cell-based, human. The note with it: Homo sapiens, HeLa, 72 h of incubation, read-out: IC50 values ± SD, HeLa.
Text: as §1, §2, §3

In the next series the test system is BJ-5ta. As to the kind of experiment: MTT assay, BJ-5ta normal fibroblasts. In kind it is cell-based, human. The following applies: Homo sapiens, Fibroblast, 72 h of incubation, normal cell line, read-out: IC50 values ± SD, BJ-5ta.
Text: as §1, §2, §3

For the next series, the system named is HCT-116. As to the kind of experiment: MTT assay, HCT-116 cells. It counts as cell-based, human. The following applies: for IC50: Homo sapiens, HCT-116, MTT, 72 h of incubation, read-out: IC50 values ± SD, HCT-116.
Text: as §1, §2, §3

The next series deals with MCF-7. As to the kind of experiment: MTT assay, MCF-7 cells. It counts as cell-based, human. The note with it: Homo sapiens, MCF7, 72 h of incubation, read-out: IC50 values ± SD, MCF-7.
Text: as §1, §2, §3

For series [1], the system named is primary brain endothelial cells. Kind of series: Endothelial cell viability assay (ATP, CellTiter-Glo). The following applies: primary rat brain endothelial cells. It counts as cell-based, rats. From the text: To comprehensively evaluate the cytotoxic effects of the investigated compounds 6c, 6e, and 8a, 8c, we conducted tests on primary endothelial cells. This additional assessment served multiple purposes in our study. Firstly, it aimed to assess the selectivity of these compounds, particularly in comparison to their effects on both tumor and normal cell lines. […] Secondly, by examining their impact on endothelial cells, we aimed to explore potential off-target effects, as endothelial cells are crucial components of blood vessels and play a pivotal role in angiogenesis—a process intricately linked to tumor growth. Lastly, these tests allowed for a broader safety assessment, beyond the scope of tumor and normal cell lines, providing insights into the compounds’ implications for vascular health and their regulatory role in angiogenesis.
Primary brain endothelial cells were isolated from rats (200–250 g, […]; n = 5 per isolation). Euthanasia was performed by CO2 exposure, followed by brain removal. The brainstem and cerebellum were dissected, and the white matter from the midbrain and choroid plexus was excised under sterile conditions. Cortical tissues were meticulously cleaned of meninges and homogenized on ice in a DMEM-F12 medium (PAA Laboratories GmbH, Cölbe, Germany) with 0.1% bovine serum albumin (BSA, Sigma-Aldrich, St. Louis, MO, USA). The homogenate was centrifuged at 800× g for 10 min at 4 °C. After aspirating the supernatant, the pellet was resuspended in a pre-warmed digestion mix containing 1 mg/mL collagenase/dispase (Roche Diagnostics, Indianapolis, IN, USA) and 10 μg/mL DNase I (Roche Diagnostics, Indianapolis, IN, USA). The homogenates were then incubated with the pre-prepared digestion mix at 37 °C for 30 min with gentle shaking. The preparation was centrifuged at 800× g for 10 min at 4 °C, and the pellets were resuspended in 20% BSA in the medium. The tissues were centrifuged at 1500× g for 15 min at 4 °C to obtain a pellet containing microvessels with a fraction of myelin and BSA on top, which was centrifuged again. The microvessels were pooled and resuspended in a pre-warmed digestion mix and incubated for 15 min at 37 °C. The pellet was then centrifuged at 800× g for 10 min at 4 °C and washed with a serum-containing DMEM-F12 culture medium. […] The endothelial cells were ready to use after 7 days.
The endothelial cell viability was assessed through the quantification of adenosine triphosphate (ATP) released from the cells, utilizing the ATP assay as per the manufacturer’s instructions (The Promega CellTiter-Glo™ Luminescent Cell Viability Assay Kit, Madison, WI, USA). […]

Usually melting point stands for the temperature of the solid-liquid transition. The term IC50 denotes the concentration that gives 50% inhibition. For `COc1cccc(NC(=S)NN2C(=O)C(C#N)=CC23c2ccccc2Nc2ccccc23)c1` [6c, 3-{4′-Cyano-5′-oxo-1′,5′-dihydro-10H-spiro[acridine-9,2′-pyrrol]-1′-yl}-1-(3-methoxyphenyl)thiourea], the melting point was 184 to 186 °C (dec.). For the same compound, in the series on MDA-MB-231, the IC50 turned out to be 47.2 ± 1.17 µM. Besides, in the series with COS-7, the IC50 came out at 83.4 ± 4.79 µM. Moreover, the concentration for half-maximal inhibition (IC50) in the series with Jurkat was found to be 6.47 ± 0.27 µM. Besides, the “selectivity index, Jurkat compared to non-tumor cells COS-7 and BJ-5ta” value with Jurkat (ratio of IC50 values) is “exceeding 10”. Also, in the series on HeLa, the IC50 worked out at 41.1 ± 1.91 µM. The IC50 in the series on BJ-5ta turned out to be 73.2 ± 2.41 µM. Moreover, the IC50 with HCT-116 was determined as 7 ± 0.22 µM. In addition, the “selectivity index, HCT-116 compared to non-tumor cells COS-7 and BJ-5ta” value with HCT-116 (ratio of IC50 values) is recorded as “exceeding 10”. For the same compound, the IC50 in the series on MCF-7 amounted to 34.2 ± 5.01 µM. In series [1], this compound returned a concentration for half-maximal inhibition (IC50) of 39 µM.

In the case of `N#CC1=CC2(c3ccccc3Nc3ccccc32)N(NC(=S)Nc2ccc([N+](=O)[O-])cc2)C1=O` [6e, 3-{4′-Cyano-5′-oxo-1′,5′-dihydro-10H-spiro[acridine-9,2′-pyrrol]-1′-yl}-1-(4-nitrophenyl)thiourea], the melting point was 175 to 179 °C (dec.). In the series with MDA-MB-231, the IC50 amounted to 78.8 ± 4.87 µM. Besides, the half-maximal inhibitory concentration (IC50) in the series on COS-7 amounted to 87.1 ± 5.82 µM. The IC50 with Jurkat worked out at 7.82 ± 0.31 µM. For the same compound, the IC50 with HeLa came to 52.1 ± 2.99 µM. Also, the IC50 with BJ-5ta turned out to be 71.1 ± 2.62 µM. Besides, the concentration for half-maximal inhibition (IC50) with HCT-116 was found to be 19.6 ± 1.07 µM. In the series with MCF-7, the 50% inhibitory concentration (IC50) stood at 39.7 ± 0.58 µM. In series [1], this compound came in with an IC50 of 45 µM.

With `CCOC(=O)/C=C1\S/C(=N\N2C(=O)C(C#N)=CC23c2ccccc2Nc2ccccc23)N(c2ccccc2)C1=O` [8a, Ethyl 2-[(2Z,5Z)-2-({4′-cyano-5′-oxo-1′,5′-dihydro-10H-spiro[acridine-9,2′-pyrrol]-1′-yl}imino)-4-oxo-3-phenyl-1,3-thiazolidin-5-ylidene]acetate], the melting point is 256 to 259 °C (dec.). For the same compound, the IC50 with MDA-MB-231 was 7.85 ± 0.69 µM. In addition, in the series on COS-7, the IC50 was found to be 9.15 ± 0.12 µM. Also, the IC50 in the series on Jurkat turned out to be 5.67 ± 0.06 µM. Also, the IC50 with HeLa came to 5.77 µM. Further, in the series with BJ-5ta, the IC50 is 7.25 ± 0.41 µM. For the same compound, in the series with HCT-116, the IC50 came to 5.46 ± 0.04 µM. Also, in the series on MCF-7, the IC50 amounted to 7.9 ± 0.49 µM. This compound displayed an IC50 in series [1] of 5 µM.

Take `CCOC(=O)/C=C1\S/C(=N\N2C(=O)C(C#N)=CC23c2ccccc2Nc2ccccc23)N(c2cccc(OC)c2)C1=O` [8c, Ethyl 2-[(2Z,5Z)-2-({4′-cyano-5′-oxo-1′,5′-dihydro-10H-spiro[acridine-9,2′-pyrrol]-1′-yl}imino)-3-(3-methoxyphenyl)-4-oxo-1,3-thiazolidin-5-ylidene]acetate]: the melting point is 239 to 243 °C (dec.). For the same compound, in the series with MDA-MB-231, the IC50 is 7.98 ± 0.93 µM. Also, in the series with COS-7, the IC50 was 8.95 ± 0.08 µM. Also, in the series on Jurkat, the IC50 was determined as 5.67 ± 0.03 µM. Further, the IC50 in the series with HeLa came out at 5.83 ± 0.03 µM. Further, the IC50 with BJ-5ta was determined as 7.18 ± 0.19 µM. Besides, the IC50 in the series with HCT-116 is 5.44 ± 0.05 µM. In addition, the concentration for half-maximal inhibition (IC50) with MCF-7 worked out at 7.75 ± 0.41 µM. The compound also displayed an IC50 in series [1] of 20 µM.

Take `CCCC1S/C(=N\N2C(=O)C(C#N)=CC23c2ccccc2Nc2ccccc23)N(c2ccc([N+](=O)[O-])cc2)C1=O` (stereo not shown) [10e, 1′-{[(2Z)-3-(4-Nitrophenyl)-4-oxo-5-propyl-1,3-thiazolidin-2-ylidene]amino}-5′-oxo-1′,5′-dihydro-10H-spiro[acridine-9,2′-pyrrole]-4′-carbonitrile]: the melting point is 249 to 251 °C (dec.). The IC50 in the series with MDA-MB-231 is over 100 µM. Moreover, in the series on COS-7, the IC50 was over 100 µM. Further, the IC50 in the series on Jurkat was over 100 µM. For the same compound, the IC50 in the series with HeLa is over 100 µM. Besides, in the series with BJ-5ta, the IC50 is over 100 µM. Besides, in the series with HCT-116, the IC50 was over 100 µM. Moreover, the IC50 with MCF-7 stood at 91.3 ± 3.74 µM.

Source of the values: PMC10537105, “Derivatives Incorporating Acridine, Pyrrole, and Thiazolidine Rings as Promising Antitumor Agents” (Molecules, 2023).
